Data: patent US10723741B1, “DNA polymerase IIIC inhibitors and use thereof” (Acurx Pharmaceuticals, LLC, priority 2018, dated 2020)
≈ marks a conversion by molar mass, not a printed value.

How the values were obtained:
Format in all cases: cell-based
[1] = system: Staphylococcus aureus NRS384 (MRSA); assay: Broth microdilution MIC, S. aureus NRS384 (MRSA); conditions: Staphylococcus aureus; broth microdilution, 37° C., 20 hours; read-out: MIC NRS 384 (MRSA)
Method in brief: (§1)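 Broth microdilution in strain-specific test medium with ~5.0×10^5 cfu/ml inoculum, 1% DMSO and two-fold compound dilutions from 64 to 0.0625 μg/ml. Plates were held 20 hours at 37° C in ambient air. S. pneumoniae colonies were grown beforehand on blood agar in 5% CO2.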

[2] = system: Staphylococcus aureus ATCC 29213 (MSSA); assay: Broth microdilution MIC, S. aureus ATCC 29213 (MSSA); conditions: broth microdilution, 37° C., 20 hours, read-out: MIC S. aureus ATCC 29213 (MSSA)
Method in brief: as §1

[3] = system: Enterococcus faecalis ATCC 29212; assay: Broth microdilution MIC, E. faecalis ATCC 29212; conditions: ATCC29212, broth microdilution, 37° C., 20 hours, read-out: MIC E. faecalis ATCC 29212
Method in brief: as §1

[4] = system: Enterococcus faecium ATCC 700221 (VRE); assay: Broth microdilution MIC, E. faecium ATCC 700221 (VRE); conditions: Enterococcus faecium; broth microdilution, 37° C., 20 hours; read-out: MIC E. faecium ATCC 700221 (VRE)
Method in brief: as §1

[5] = system: Streptococcus pneumoniae ATCC 49619; assay: Broth microdilution MIC, S. pneumoniae ATCC 49619; conditions: ATCC49619, broth microdilution, 37° C., 20 hours, read-out: MIC S. pneumoniae ATCC 49619
Method in brief: as §1

[6] = system: Bacillus subtilis ATCC 6633; assay: Broth microdilution MIC, B. subtilis ATCC 6633; conditions: ATCC6633, broth microdilution, 37° C., 20 hours, read-out: MIC B. subtilis ATCC 6633
Method in brief: as §1

[7] = system: Escherichia coli ATCC 25922; assay: Broth microdilution MIC, E. coli ATCC 25922 (MHIIB w & w/o 4 mM EDTA); conditions: broth microdilution, 37° C., 20 hours; for MIC: Escherichia coli, ATCC25922, without EDTA, read-out: MIC E. coli ATCC 25922; for MIC E. coli ATCC 25922 + 4 mM EDTA: with 4 mM EDTA
Method in brief: as §1

Row | MIC [1] | MIC [2] | MIC [3] | MIC [4] | MIC [5] | MIC [6] | MIC [7] | MIC E. coli ATCC 25922 + 4 mM EDTA [7] | SMILES
1 | 32 µg/mL (≈ 76.7 µM) | 32 µg/mL (≈ 76.7 µM) | 32 µg/mL (≈ 76.7 µM) | 16 µg/mL (≈ 38.3 µM) | 4 µg/mL (≈ 9.59 µM) | 16 µg/mL (≈ 38.3 µM) | > 64 µg/mL | 64 µg/mL | NS(=O)(=O)CCn1ncc2nc(NCc3ccc(Cl)c(Cl)c3)[nH]c(=O)c21 [Compound 237, 2-(5-((3,4-dichlorobenzyl)amino)-7-oxo-6,7-dihydro-1H-pyrazolo[4,3-d]pyrimidin-1-yl)ethanesulfonamide]
2 | > 64 µg/mL | > 64 µg/mL | > 64 µg/mL | > 64 µg/mL | > 64 µg/mL | > 64 µg/mL | > 64 µg/mL | >64 µg/mL | Cn1ncc2nc(NCc3ncc[nH]3)[nH]c(=O)c21 [Compound 22, 5-(((1H-imidazol-2-yl)methyl)amino)-1-methyl-1H-pyrazolo[4,3-d]pyrimidin-7(6H)-one]
3 | 2 µg/mL (≈ 5.68 µM) | 2 µg/mL (≈ 5.68 µM) | 4 µg/mL (≈ 11.4 µM) | 2 µg/mL (≈ 5.68 µM) | 4 µg/mL (≈ 11.4 µM) | 1 µg/mL (≈ 2.84 µM) | > 64 µg/mL | 16 µg/mL | CC(C)n1ncc2nc(NCc3ccc(Cl)c(Cl)c3)[nH]c(=O)c21 [Compound 130, 5-((3,4-Dichlorobenzyl)amino)-1-isopropyl-1H-pyrazolo[4,3-d]pyrimidin-7(6H)-one]
4 | > 64 µg/mL | > 64 µg/mL | > 64 µg/mL | > 64 µg/mL | > 64 µg/mL | > 64 µg/mL | > 64 µg/mL | >64 µg/mL | Cn1ncc2nc(NCc3ccc4[nH]cnc4c3)[nH]c(=O)c21 [Compound 19, 5-(((1H-benzo[d]imidazol-5-yl)methyl)amino)-1-methyl-1H-pyrazolo[4,3-d]pyrimidin-7(6H)-one]
5 | 8 µg/mL (≈ 19.8 µM) | 8 µg/mL (≈ 19.8 µM) | > 64 µg/mL | 8 µg/mL (≈ 19.8 µM) | 4 µg/mL (≈ 9.89 µM) | 8 µg/mL (≈ 19.8 µM) | > 64 µg/mL | >64 µg/mL | Cn1ccnc1Cn1ncc2nc(NCc3ccc(Cl)c(Cl)c3)[nH]c(=O)c21 [Compound 97, 5-((3,4-Dichlorobenzyl)amino)-1-((1-methyl-1H-imidazol-2-yl)methyl)-1H-pyrazolo[4,3-d]pyrimidin-7(6H)-one]
6 | 16 µg/mL (≈ 36.5 µM) | 16 µg/mL (≈ 36.5 µM) | 16 µg/mL (≈ 36.5 µM) | 8 µg/mL (≈ 18.3 µM) | 8 µg/mL (≈ 18.3 µM) | 32 µg/mL (≈ 73 µM) | > 64 µg/mL | >64. ug/ml | CC(C)(CCCn1ncc2nc(NCc3ccc(Cl)c(Cl)c3)[nH]c(=O)c21)C(=O)O [Compound 199, 5-(5-((3,4-Dichlorobenzyl)amino)-7-oxo-6,7-dihydro-1H-pyrazolo[4,3-d]pyrimidin-1-yl)-2,2-dimethylpentanoic acid]
7 | > 64 µg/mL | > 64 µg/mL | > 64 µg/mL | > 64 µg/mL | > 64 µg/mL | > 64 µg/mL | > 64 µg/mL | >64 µg/mL | CCc1[nH]c(CNc2nc3cnn(C)c3c(=O)[nH]2)nc1Cl.Cl [Compound 38, 5-(((4-Chloro-5-ethyl-1H-imidazol-2-yl)methyl)amino)-1-methyl-1H-pyrazolo[4,3-d]pyrimidin-7(6H)-one hydrochloride]

The next lines start with the molecule.

Row | SMILES | MIC [1] | MIC [2] | MIC [3] | MIC [4] | MIC [5] | MIC [6] | MIC [7] | MIC E. coli ATCC 25922 + 4 mM EDTA [7]
8 | O=c1[nH]c(NCc2ccc(Cl)c(Cl)c2)nc2cnn(C[C@@H]3CO[C@@H](CO)CO3)c12 [Compound 207, 5-((3,4-dichlorobenzyl)amino)-1-(((2R,5S)-5-(hydroxymethyl)-1,4-dioxan-2-yl)methyl)-1H-pyrazolo[4,3-d]pyrimidin-7(6H)-one] | 16 µg/mL (≈ 36.3 µM) | 16 µg/mL (≈ 36.3 µM) | 8 µg/mL (≈ 18.2 µM) | 4 µg/mL (≈ 9.08 µM) | 8 µg/mL (≈ 18.2 µM) | 2 µg/mL (≈ 4.54 µM) | > 64 µg/mL | >64 µg/mL
9 | O=C(Cn1ncc2nc(NCc3ccc(Cl)c(Cl)c3)[nH]c(=O)c21)N1CCOCC1 [Compound 158, 5-((3,4-dichlorobenzyl)amino)-1-(2-morpholino-2-oxoethyl)-1H-pyrazolo[4,3-d]pyrimidin-7(6H)-one] | 32 µg/mL (≈ 73.2 µM) | 16 µg/mL (≈ 36.6 µM) | 16 µg/mL (≈ 36.6 µM) | 8 µg/mL (≈ 18.3 µM) | 4 µg/mL (≈ 9.15 µM) | 8 µg/mL (≈ 18.3 µM) | > 64 µg/mL | >64 µg/mL
10 | CN(CCn1ncc2nc(NCc3ccc(Cl)c(Cl)c3)[nH]c(=O)c21)C(=O)c1cc(Cl)nnc1O [Compound 81, 6-Chloro-N-(2-(5-((3,4-dichlorobenzyl)amino)-7-oxo-6,7-dihydro-1H-pyrazolo[4,3-d]pyrimidin-1-yl)ethyl)-3-hydroxy-N-methylpyridazine-4-carboxamide] | 64 µg/mL (≈ 122 µM) | 64 µg/mL (≈ 122 µM) | 32 µg/mL (≈ 61.1 µM) | 32 µg/mL (≈ 61.1 µM) | 8 µg/mL (≈ 15.3 µM) | 64 µg/mL (≈ 122 µM) | > 64 µg/mL | 64 µg/mL
11 | C[Si](C)(C)CCOCNC(=O)Cn1ncc2nc(NCc3ccc(Cl)c(Cl)c3)[nH]c(=O)c21 [Compound 197, 2-(5-((3,4-dichlorobenzyl)amino)-7-oxo-6,7-dihydro-1H-pyrazolo[4,3-d]pyrimidin-1-yl)-N-((2-(trimethylsilyl)ethoxy)methyl)acetamide] | > 64 µg/mL | > 64 µg/mL | > 64 µg/mL | > 64 µg/mL | > 64 µg/mL | > 64 µg/mL | > 64 µg/mL | >64 µg/mL
12 | Cl.O=C(c1cc[nH]n1)N1CCC(n2ncc3nc(NCc4ccc(Cl)c(Cl)c4)[nH]c(=O)c32)CC1 [Compound 271, 1-(1-(1H-pyrazole-3-carbonyl)piperidin-4-yl)-5-((3,4-dichlorobenzyl)amino)-1H-pyrazolo[4,3-d]pyrimidin-7(6H)-one hydrochloride] | 8 µg/mL | 8 µg/mL | 4 µg/mL | 4 µg/mL | 4 µg/mL | 2 µg/mL | > 64 µg/mL | >64 µg/mL
13 | O=c1[nH]c(NCc2ccc(Cl)c(Cl)c2)nc2cnn(CCS(=O)(=O)CCO)c12 [Compound 164, 5-((3,4-dichlorobenzyl)amino)-1-(2-((2-hydroxyethyl)sulfonyl)ethyl)-1H-pyrazolo[4,3-d]pyrimidin-7(6H)-one] | 64 µg/mL (≈ 143 µM) | 32 µg/mL (≈ 71.7 µM) | 32 µg/mL (≈ 71.7 µM) | 16 µg/mL (≈ 35.8 µM) | 4 µg/mL (≈ 8.96 µM) | 16 µg/mL (≈ 35.8 µM) | > 64 µg/mL | >64 µg/mL
14 | CC(C)(C)OC(=O)N1CCC(n2ncc3nc(NCc4ccc(Cl)c(Cl)c4)[nH]c(=O)c32)CC1 [Compound 153, Tert-butyl 4-(5-((3,4-dichlorobenzyl)amino)-7-oxo-6,7-dihydro-1H-pyrazolo[4,3-d]pyrimidin-1-yl)piperidine-1-carboxylate] | 4 µg/mL (≈ 8.11 µM) | 8 µg/mL (≈ 16.2 µM) | 4 µg/mL (≈ 8.11 µM) | 2 µg/mL (≈ 4.05 µM) | 16 µg/mL (≈ 32.4 µM) | 2 µg/mL (≈ 4.05 µM) | > 64 µg/mL | 
15 | CC(C)(C)OC(=O)N1CCCC(CN2CCC(n3ncc4nc(NCc5ccc(Cl)c(Cl)c5)[nH]c(=O)c43)CC2)C1.Cl (centres unmarked) [Compound 250] | > 64 µg/mL | > 64 µg/mL | > 64 µg/mL | 4 µg/mL | 8 µg/mL | 4 µg/mL | > 64 µg/mL | >64 µg/mL
16 | CN(CCn1ncc2nc(NCc3ccc(Cl)c(Cl)c3)[nH]c(=O)c21)C(=O)c1cnoc1 [Compound 82, N-(2-(5-((3,4-dichlorobenzyl)amino)-7-oxo-6,7-dihydro-1H-pyrazolo[4,3-d]pyrimidin-1-yl)ethyl)-N-methylisoxazole-4-carboxamide] | 16 µg/mL (≈ 34.6 µM) | 16 µg/mL (≈ 34.6 µM) | 8 µg/mL (≈ 17.3 µM) | 4 µg/mL (≈ 8.65 µM) | 8 µg/mL (≈ 17.3 µM) | 8 µg/mL (≈ 17.3 µM) | > 64 µg/mL | >64 µg/mL
17 | CN(C)C(=O)C1CN(CCn2ncc3nc(NCc4ccc(Cl)c(Cl)c4)[nH]c(=O)c32)CCO1.Cl (centres unmarked) [Compound 72, 4-(2-(5-((3,4-Dichlorobenzyl)amino)-7-oxo-6,7-dihydro-1H-pyrazolo[4,3-d]pyrimidin-1-yl)ethyl)-N,N-dimethylmorpholine-2-carboxamide hydrochloride] | 16 µg/mL | 16 µg/mL | 8 µg/mL | 8 µg/mL | 8 µg/mL | 4 µg/mL | > 64 µg/mL | >64 µg/mL
18 | Cl.O=C(c1ccccn1)N1CCC(n2ncc3nc(NCc4ccc(Cl)c(Cl)c4)[nH]c(=O)c32)CC1 [Compound 255, 5-((3,4-Dichlorobenzyl)amino)-1-(1-picolinoylpiperidin-4-yl)-1H-pyrazolo[4,3-d]pyrimidin-7(6H)-one hydrochloride] | 4 µg/mL | 4 µg/mL | 4 µg/mL | 2 µg/mL | 2 µg/mL | 2 µg/mL | > 64 µg/mL | >64 µg/mL
